Data: the NIST ThermoML archive (doi:10.1016/j.jct.2015.05.006)
Numbers after ± are expanded uncertainties.

Legend:
[1] = relative permittivity at various frequencies (dimensionless); xn = mol fraction of the nth substance listed; settings: Liquid, Frequency=1 MHz, Parallel plate capacitor
[2] = xn = mol fraction of the nth substance listed; settings: Liquid, Vibrating tube method

COCCOC [1,2-dimethoxyethane] + C1CCCCC1
96.6 kPa
Settings | mass density, [2] [kg/m3] | relative permittivity, [1]
288.15 K, x2 = 0 | 872.06 ± 1 | 7.41 ± 0.07
288.15 K, x2 = 0.0459 | – | 7.02 ± 0.07
288.15 K, x2 = 0.0497 | 865.63 ± 1 | –
288.15 K, x2 = 0.1021 | 859.14 ± 1 | –
288.15 K, x2 = 0.1034 | – | 6.56 ± 0.07
288.15 K, x2 = 0.1974 | 847.96 ± 1 | –
288.15 K, x2 = 0.2009 | – | 5.84 ± 0.06
288.15 K, x2 = 0.3013 | – | 5.17 ± 0.05
288.15 K, x2 = 0.3031 | 836.42 ± 1 | –
288.15 K, x2 = 0.4026 | 826.35 ± 1 | –
288.15 K, x2 = 0.4027 | – | 4.55 ± 0.05
288.15 K, x2 = 0.4967 | 817.52 ± 1 | –
288.15 K, x2 = 0.5031 | – | 3.99 ± 0.04
288.15 K, x2 = 0.5998 | 808.62 ± 1 | 3.51 ± 0.04
288.15 K, x2 = 0.6961 | 801.06 ± 1 | –
288.15 K, x2 = 0.7015 | – | 3.06 ± 0.03
288.15 K, x2 = 0.7953 | – | 2.69 ± 0.03
288.15 K, x2 = 0.8006 | 793.78 ± 1 | –
288.15 K, x2 = 0.9017 | – | 2.33 ± 0.02
288.15 K, x2 = 0.9033 | 787.7 ± 1 | –
288.15 K, x2 = 0.9494 | – | 2.19 ± 0.02
288.15 K, x2 = 0.9514 | 785.33 ± 1 | –
298.15 K, x2 = 0 | 861.17 ± 1 | 7.07 ± 0.07
298.15 K, x2 = 0.0446 | 855.02 ± 1 | –
298.15 K, x2 = 0.0475 | – | 6.7 ± 0.07
298.15 K, x2 = 0.0978 | 848.89 ± 1 | –
298.15 K, x2 = 0.098 | – | 6.31 ± 0.06
298.15 K, x2 = 0.1963 | 837.39 ± 1 | –
298.15 K, x2 = 0.2057 | – | 5.58 ± 0.06
298.15 K, x2 = 0.3034 | – | 4.96 ± 0.05
298.15 K, x2 = 0.3038 | 825.79 ± 1 | –
298.15 K, x2 = 0.3952 | – | 4.43 ± 0.04
298.15 K, x2 = 0.4024 | 815.96 ± 1 | –
298.15 K, x2 = 0.5013 | 806.83 ± 1 | –
298.15 K, x2 = 0.5077 | – | 3.84 ± 0.04
298.15 K, x2 = 0.6014 | – | 3.41 ± 0.03
298.15 K, x2 = 0.6054 | 798.09 ± 1 | –
298.15 K, x2 = 0.7018 | 790.78 ± 1 | –
298.15 K, x2 = 0.7093 | – | 2.96 ± 0.03
298.15 K, x2 = 0.7994 | – | 2.63 ± 0.03
298.15 K, x2 = 0.8023 | 784.01 ± 1 | –
298.15 K, x2 = 0.8965 | 778.59 ± 1 | –
298.15 K, x2 = 0.9016 | – | 2.3 ± 0.02
298.15 K, x2 = 0.9498 | 776 ± 1 | –
298.15 K, x2 = 0.952 | – | 2.16 ± 0.02
308.15 K, x2 = 0 | 850.13 ± 1 | 6.75 ± 0.07
308.15 K, x2 = 0.0454 | 844.13 ± 1 | –
308.15 K, x2 = 0.0456 | – | 6.42 ± 0.06
308.15 K, x2 = 0.0969 | 838.11 ± 1 | –
308.15 K, x2 = 0.0976 | – | 6.05 ± 0.06
308.15 K, x2 = 0.1954 | 826.9 ± 1 | –
308.15 K, x2 = 0.1983 | – | 5.41 ± 0.05
308.15 K, x2 = 0.299 | – | 4.83 ± 0.05
308.15 K, x2 = 0.2993 | 815.83 ± 1 | –
308.15 K, x2 = 0.3959 | – | 4.29 ± 0.04
308.15 K, x2 = 0.4037 | 805.56 ± 1 | –
308.15 K, x2 = 0.4993 | – | 3.77 ± 0.04
308.15 K, x2 = 0.5042 | 796.44 ± 1 | –
308.15 K, x2 = 0.6002 | – | 3.32 ± 0.03
308.15 K, x2 = 0.6072 | 787.93 ± 1 | –
308.15 K, x2 = 0.6995 | 781.05 ± 1 | –
308.15 K, x2 = 0.7005 | – | 2.93 ± 0.03
308.15 K, x2 = 0.8004 | 774.34 ± 1 | –
308.15 K, x2 = 0.8012 | – | 2.58 ± 0.03
308.15 K, x2 = 0.902 | – | 2.27 ± 0.02
308.15 K, x2 = 0.904 | 768.62 ± 1 | –
308.15 K, x2 = 0.9514 | – | 2.14 ± 0.02
308.15 K, x2 = 0.9535 | 766.31 ± 1 | –

COCCOC [1,2-dimethoxyethane] + CCCCCC
95.2 kPa
Settings | mass density, [2] [kg/m3] | relative permittivity, [1]
288.15 K, x2 = 0 | 872.06 ± 1 | 7.41 ± 0.07
288.15 K, x2 = 0.0501 | 857.87 ± 1 | –
288.15 K, x2 = 0.0513 | – | 6.89 ± 0.07
288.15 K, x2 = 0.0904 | – | 6.46 ± 0.06
288.15 K, x2 = 0.1049 | 842.87 ± 1 | –
288.15 K, x2 = 0.1999 | – | 5.58 ± 0.06
288.15 K, x2 = 0.2992 | – | 4.85 ± 0.05
288.15 K, x2 = 0.2999 | 794.19 ± 1 | –
288.15 K, x2 = 0.4004 | – | 4.19 ± 0.04
288.15 K, x2 = 0.4059 | 770.33 ± 1 | –
288.15 K, x2 = 0.4961 | 751.31 ± 1 | –
288.15 K, x2 = 0.4983 | – | 3.65 ± 0.04
288.15 K, x2 = 0.6001 | – | 3.17 ± 0.03
288.15 K, x2 = 0.6054 | 729.6 ± 1 | –
288.15 K, x2 = 0.694 | 713.16 ± 1 | –
288.15 K, x2 = 0.7004 | – | 2.77 ± 0.03
288.15 K, x2 = 0.7916 | 696.41 ± 1 | –
288.15 K, x2 = 0.8057 | – | 2.41 ± 0.02
288.15 K, x2 = 0.9022 | – | 2.14 ± 0.02
288.15 K, x2 = 0.9035 | 678.43 ± 1 | –
288.15 K, x2 = 0.9509 | – | 2.02 ± 0.02
288.15 K, x2 = 0.9533 | 670.87 ± 1 | –
298.15 K, x2 = 0 | 861.17 ± 1 | 7.07 ± 0.07
298.15 K, x2 = 0.0459 | – | 6.61 ± 0.07
298.15 K, x2 = 0.0495 | 846.99 ± 1 | –
298.15 K, x2 = 0.0955 | – | 6.19 ± 0.06
298.15 K, x2 = 0.1011 | 833.13 ± 1 | –
298.15 K, x2 = 0.2009 | 807.1 ± 1 | –
298.15 K, x2 = 0.2013 | – | 5.36 ± 0.05
298.15 K, x2 = 0.2992 | – | 4.67 ± 0.05
298.15 K, x2 = 0.3031 | 782.87 ± 1 | –
298.15 K, x2 = 0.398 | – | 4.07 ± 0.04
298.15 K, x2 = 0.4027 | 760.92 ± 1 | –
298.15 K, x2 = 0.4977 | 740.86 ± 1 | –
298.15 K, x2 = 0.4984 | – | 3.53 ± 0.04
298.15 K, x2 = 0.5959 | 721.71 ± 1 | –
298.15 K, x2 = 0.6014 | – | 3.08 ± 0.03
298.15 K, x2 = 0.6972 | 703.06 ± 1 | –
298.15 K, x2 = 0.7019 | – | 2.7 ± 0.03
298.15 K, x2 = 0.8016 | – | 2.38 ± 0.02
298.15 K, x2 = 0.8051 | 684.57 ± 1 | –
298.15 K, x2 = 0.8985 | 670 ± 1 | –
298.15 K, x2 = 0.9031 | – | 2.11 ± 0.02
298.15 K, x2 = 0.9477 | – | 2.01 ± 0.02
308.15 K, x2 = 0 | 850.13 ± 1 | 6.75 ± 0.07
308.15 K, x2 = 0.0457 | 837.34 ± 1 | –
308.15 K, x2 = 0.0494 | – | 6.3 ± 0.06
308.15 K, x2 = 0.0927 | 824.63 ± 1 | –
308.15 K, x2 = 0.0967 | – | 5.9 ± 0.06
308.15 K, x2 = 0.1938 | – | 5.18 ± 0.05
308.15 K, x2 = 0.2001 | 797.09 ± 1 | –
308.15 K, x2 = 0.2984 | 773.76 ± 1 | –
308.15 K, x2 = 0.3011 | – | 4.47 ± 0.05
308.15 K, x2 = 0.3939 | 752.46 ± 1 | –
308.15 K, x2 = 0.4025 | – | 3.91 ± 0.04
308.15 K, x2 = 0.4989 | – | 3.44 ± 0.03
308.15 K, x2 = 0.5082 | 728.75 ± 1 | –
308.15 K, x2 = 0.5955 | 711.88 ± 1 | –
308.15 K, x2 = 0.6018 | – | 3 ± 0.03
308.15 K, x2 = 0.6927 | 694.24 ± 1 | –
308.15 K, x2 = 0.699 | – | 2.66 ± 0.03
308.15 K, x2 = 0.7982 | – | 2.36 ± 0.02
308.15 K, x2 = 0.8036 | 675.37 ± 1 | –
308.15 K, x2 = 0.901 | – | 2.09 ± 0.02
308.15 K, x2 = 0.9023 | 660.16 ± 1 | –
308.15 K, x2 = 0.9506 | – | 1.99 ± 0.02
308.15 K, x2 = 0.9509 | 653.01 ± 1 | –
